Test results reported in ChEMBL document CHEMBL1123870, “Limited nerve impulse blockade by "leashed" local anesthetics” (1987).

Assay: Tonic inhibition of compound action potential by 50% was determined in the absence of avidin in desheathed frog sciatic nerves
Format: functional
Settings: Amphibia, Sciatic nerve; read-out: ED50 (the source's name)

Row | SMILES | EC50 [µM]
1 | CCCCN(C(=O)CCCC[C@H]1SCC2NC(=O)NC21)c1ccc(C(=O)OCCN(C)C)cc1 (some centres not stated) | 1500
2 | CCCCNc1ccc(C(=O)OCCN(C)C)cc1 [TETRACAINE] | 12
3 | CCN(CC)CCOC(=O)c1ccc(NC(=O)CCCC[C@H]2SCC3NC(=O)NC32)cc1 (some centres not stated) | 4200
4 | CCN(CC)CCOC(=O)c1ccc(NC(=O)OCCOCCOCCOC(=O)CCCC[C@H]2SCC3NC(=O)NC32)cc1 (some centres not stated) | 2400
5 | CCN(CC)CCOC(=O)c1ccc(NC(=O)OCCOCCOCCO)cc1 | 3200
6 | CCN(CC)CCOC(=O)c1ccc(N)cc1 [PROCAINE] | 1300
7 | CCN(CC)CCOC(=O)c1ccc(NC(=O)OCCOCCOCCOCCOCCOCCO)cc1 | 6600
